Experimental data taken from PubChem BioAssay AID248 (DTP/NCI, 2004).
Several values for one entry are separate records, joined by “and”; a condition that tells them apart may be missing. Equal entries are not always repeated. Inconclusive results and toxic doses are left out. Rule as the data show it: active = T/C of 150% or more; inactive = T/C below 125%.

Tested on: L1210 leukemia ip in BDF1 mice, survival T/C
Assay: NCI In Vivo Anticancer Drug Screen. Data for tumor model L1210 Leukemia (intraperitoneal) in B6D2F1 (BDF1) mice
Conditions: endpoint: mean survival time, higher = longer survival
How it was run: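 Survival endpoint. Drug-treated group vs vehicle group, expressed as T divided by C. Tumor passaged by transplantation.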

[1] = dose: 100.0 mg/kg/injection, schedule: Q04DX002 (ip), vehicle: saline with Tween-80
[2] = dose: 100.0 mg/kg/injection, schedule: Q01DX009 (ip), vehicle: Klucel (hydroxypropylcellulose) (HPC)
[3] = dose: 200.0 mg/kg/injection, schedule: Q01DX009 (ip), vehicle: Klucel (hydroxypropylcellulose) (HPC)
[4] = dose: 100.0 mg/kg/injection, schedule: Q01DX009 (ip), vehicle: saline with Tween-80
[5] = dose: 200.0 mg/kg/injection, schedule: Q01DX009 (ip), vehicle: saline with Tween-80

Measured: T/C

CN(C)C(=O)OCC[N+](C)(C)CCCCCCCCCC[N+](C)(C)CCOC(=O)N(C)C
inactive: dose: 0.63 mg/kg/injection, schedule: Q01DX009 (ip), vehicle: saline 94 % of control | dose: 1.25 mg/kg/injection, schedule: Q01DX009 (ip), vehicle: saline 98 % of control | dose: 2.5 mg/kg/injection, schedule: Q01DX009 (ip), vehicle: saline 93 % of control | dose: 5.0 mg/kg/injection, schedule: Q04DX003 (ip), vehicle: saline 94 % of control

CCCCSP(=O)(c1ccccc1)N1CCCCC1 (stereo not given)
inactive: dose: 25.0 mg/kg/injection, schedule: Q04DX002 (ip), vehicle: saline with Tween-80 100 % of control | dose: 50.0 mg/kg/injection, schedule: Q04DX002 (ip), vehicle: saline with Tween-80 92 % of control | [1] 92 % of control and 97 % of control

CCOc1ccc2ccccc2c1OP(=O)(OCC)OCC
inactive: dose: 100.0 mg/kg/injection, schedule: Q04DX002 (ip), vehicle: other 103 % of control | dose: 200.0 mg/kg/injection, schedule: Q04DX002 (ip), vehicle: other 113 % of control | dose: 400.0 mg/kg/injection, schedule: Q04DX002 (ip), vehicle: other 106 % of control

COc1cc(C(=O)Nc2ccc(F)cc2)cc(OC)c1OC
inactive: [2] 92 % of control | [3] 97 % of control | dose: 400.0 mg/kg/injection, schedule: Q01DX009 (ip), vehicle: Klucel (hydroxypropylcellulose) (HPC) 94 % of control

CCCCNc1ncnc2c1nnn2C1OC(CO)C(O)C1O (stereo not given)
inactive: dose: 12.5 mg/kg/injection, schedule: Q04DX002 (ip), vehicle: Klucel (hydroxypropylcellulose) (HPC) 100 % of control | dose: 25.0 mg/kg/injection, schedule: Q04DX002 (ip), vehicle: Klucel (hydroxypropylcellulose) (HPC) 94 % of control | dose: 50.0 mg/kg/injection, schedule: Q04DX002 (ip), vehicle: Klucel (hydroxypropylcellulose) (HPC) 97 % of control

N=C(N)c1ccc(NC(=O)c2ccc(C(=O)Nc3ccc(C(=N)N)cc3)c(N)c2)cc1
inactive: dose: 62.0 mg/kg/injection, schedule: Q01DX Z (ip), vehicle: carboxymethylcellulose (CMC) 106 % of control | dose: 125.0 mg/kg/injection, schedule: Q01DX Z (ip), vehicle: carboxymethylcellulose (CMC) 118 % of control | dose: 500.0 mg/kg/injection, schedule: Q01DX Z (ip), vehicle: carboxymethylcellulose (CMC) 113 % of control

c1ccc(Cc2ccncc2)cc1
inactive: [4] 101 % of control | [5] 106 % of control

O=C(Nc1ccc(F)c(Cl)c1)Nc1ccc(Cl)c(C(F)(F)F)c1
inactive: [4] 88 % of control | [5] 98 % of control

CCCCS(=O)(=O)N1CCCC(C)C1 (stereo not given)
inactive: dose: 100.0 mg/kg/injection, schedule: Q04DX002 (ip), vehicle: Klucel (hydroxypropylcellulose) (HPC) 100 % of control | dose: 200.0 mg/kg/injection, schedule: Q04DX002 (ip), vehicle: Klucel (hydroxypropylcellulose) (HPC) 107 % of control | dose: 400.0 mg/kg/injection, schedule: Q04DX002 (ip), vehicle: Klucel (hydroxypropylcellulose) (HPC) 103 % of control

Nc1ccc(Cl)cc1-c1ccccc1
inactive: dose: 55.0 mg/kg/injection, schedule: Q01DX Z (ip), vehicle: saline 105 % of control | dose: 125.0 mg/kg/injection, schedule: Q01DX Z (ip), vehicle: saline 104 % of control

O=C(c1ccccc1)c1ccco1
inactive: dose: 50.0 mg/kg/injection, schedule: Q01DX009 (ip), vehicle: saline 102 % of control | dose: 100.0 mg/kg/injection, schedule: Q01DX009 (ip), vehicle: saline 91 % of control | dose: 200.0 mg/kg/injection, schedule: Q01DX009 (ip), vehicle: saline 93 % of control

Cc1nc2c(O)cccc2cc1CO
inactive: [2] 95 % of control | [3] 93 % of control

CSc1ccc(OC(=O)Nc2ccc(C)cc2[N+](=O)[O-])cc1
inactive: dose: 50.0 mg/kg/injection, schedule: Q01DX009 (ip), vehicle: Klucel (hydroxypropylcellulose) (HPC) 90 % of control | [2] 90 % of control | dose: 100.0 mg/kg/injection, schedule: Q04DX003 (ip), vehicle: Klucel (hydroxypropylcellulose) (HPC) 97 % of control | [3] 100 % of control | dose: 200.0 mg/kg/injection, schedule: Q04DX003 (ip), vehicle: Klucel (hydroxypropylcellulose) (HPC) 99 % of control | dose: 400.0 mg/kg/injection, schedule: Q04DX003 (ip), vehicle: Klucel (hydroxypropylcellulose) (HPC) 97 % of control

CC(=O)CSC(=S)OC(C)C
inactive: dose: 100.0 mg/kg/injection, schedule: Q04DX002 (ip), vehicle: saline 112 % of control | dose: 200.0 mg/kg/injection, schedule: Q04DX002 (ip), vehicle: saline 94 % of control | dose: 400.0 mg/kg/injection, schedule: Q04DX002 (ip), vehicle: saline 105 % of control

CC1CN(Cc2cccc(C#N)c2)CC(C)N1 (stereo not given)
inactive: dose: 25.0 mg/kg/injection, schedule: Q01DX009 (ip), vehicle: water 93 % of control | dose: 50.0 mg/kg/injection, schedule: Q01DX009 (ip), vehicle: water 101 % of control | dose: 100.0 mg/kg/injection, schedule: Q01DX009 (ip), vehicle: water 100 % of control

Nc1nc(N)c(N=O)c(Nc2ccc(Cl)c(Cl)c2)n1
inactive: dose: 3.12 mg/kg/injection, schedule: Q01DX Z (ip), vehicle: carboxymethylcellulose (CMC) 117 % of control | dose: 6.25 mg/kg/injection, schedule: Q01DX Z (ip), vehicle: carboxymethylcellulose (CMC) 104 % of control | dose: 12.5 mg/kg/injection, schedule: Q01DX Z (ip), vehicle: carboxymethylcellulose (CMC) 106 % of control | dose: 25.0 mg/kg/injection, schedule: Q01DX Z (ip), vehicle: carboxymethylcellulose (CMC) 109 % of control | dose: 100.0 mg/kg/injection, schedule: Q01DX Z (ip), vehicle: carboxymethylcellulose (CMC) 89 % of control | dose: 400.0 mg/kg/injection, schedule: Q01DX Z (ip), vehicle: carboxymethylcellulose (CMC) 86 % of control

CCNC(=S)Nc1ccccc1
inactive: dose: 37.5 mg/kg/injection, schedule: Q01DX009 (ip), vehicle: Klucel (hydroxypropylcellulose) (HPC) 102 % of control | dose: 75.0 mg/kg/injection, schedule: Q01DX009 (ip), vehicle: Klucel (hydroxypropylcellulose) (HPC) 104 % of control | dose: 150.0 mg/kg/injection, schedule: Q01DX009 (ip), vehicle: Klucel (hydroxypropylcellulose) (HPC) 115 % of control

CNC1C(O)C(OC2C(N)CC(N)C(OC3OC(CN)=CCC3N)C2O)OCC1(C)O (stereo not given)
inactive: dose: 63.5 mg/kg/injection, schedule: Q04DX002 (ip), vehicle: saline with Tween-80 90 % of control | dose: 125.0 mg/kg/injection, schedule: Q04DX002 (ip), vehicle: saline with Tween-80 97 % of control | dose: 250.0 mg/kg/injection, schedule: Q04DX002 (ip), vehicle: saline with Tween-80 87 % of control

COc1n[n+]([O-])c(Cl)c(/C=C\c2ccccc2)c1[N+](=O)[O-]
inactive: dose: 75.0 mg/kg/injection, schedule: Q04DX002 (ip), vehicle: Klucel (hydroxypropylcellulose) (HPC) 93 % of control | dose: 150.0 mg/kg/injection, schedule: Q04DX002 (ip), vehicle: Klucel (hydroxypropylcellulose) (HPC) 101 % of control | dose: 300.0 mg/kg/injection, schedule: Q04DX002 (ip), vehicle: Klucel (hydroxypropylcellulose) (HPC) 101 % of control

Cc1ccc(NC(=S)NC(=O)/C=C/c2ccccc2)cc1Cl
inactive: dose: 25.0 mg/kg/injection, schedule: Q01DX009 (ip), vehicle: saline with Tween-80 94 % of control | dose: 50.0 mg/kg/injection, schedule: Q01DX009 (ip), vehicle: saline with Tween-80 96 % of control and 86 % of control | dose: 100.0 mg/kg/injection, schedule: Q01DX001 (ip), vehicle: saline with Tween-80 87 % of control | [1] 97 % of control | dose: 200.0 mg/kg/injection, schedule: Q01DX001 (ip), vehicle: saline with Tween-80 87 % of control | dose: 200.0 mg/kg/injection, schedule: Q04DX002 (ip), vehicle: saline with Tween-80 87 % of control and 89 % of control | dose: 400.0 mg/kg/injection, schedule: Q04DX002 (ip), vehicle: saline with Tween-80 87 % of control and 89 % of control

COC(=O)c1c2ccccc2[n+](C)c2ccccc12
inactive: dose: 12.5 mg/kg/injection, schedule: Q04DX003 (ip), vehicle: saline 96 % of control | dose: 25.0 mg/kg/injection, schedule: Q04DX003 (ip), vehicle: saline 100 % of control | dose: 50.0 mg/kg/injection, schedule: Q04DX003 (ip), vehicle: saline 102 % of control
